Experimental data taken from patent publication US9650389B2, “8-oxoprotoberberine derivative or pharmaceutically acceptable salt thereof, preparation method therefor and pharmaceutical composition for preventing or treating diseases associated with activity of NFAT5, containing same as active ingredient” (Korea Research Institute of Chemical Technology, priority 2013, dated 2017).
Read-outs that look alike come from different tables or passages of the source.

Tests used:
[1] = test system: iNOS; experiment: Inhibition of LPS-induced iNOS induction in Raw264.7 cells (Griess reagent); type: cell-based; conditions: Mus musculus, read-out: Inhibition rate of iNOS induction (%)
Experimental: To investigate whether or not the derivative of the present invention could inhibit iNOS inducement, Raw264.7 cells (mouse macrophages) were distributed in a 384-well plate at the density of 3×10^4 cells/well. The cells were treated with LPS at the concentration of 100 ng/ml, followed by culture at 37° C. for 24 hours. The concentration of […] increased in the medium was measured by using Griess reagent. The inhibition rate was calculated by mathematical formula based on the detected signals. The results are shown in Table 2. % inhibition=(mean value of sample−mean value of negative control)/(mean value of positive control −mean value of negative control)×100 [Mathematical Formula 1]

[2] = biological target: T1, NFAT5 (Mus musculus, UniProt Q9WV30); experiment: NFAT5 reporter screening (GFP, HCS) in LPS-treated Raw264.7 cells; type: cell-based; conditions: for Inhibition rate of NFAT5 transcription (%): Raw264.7 reporter, LPS 1 μg/ml, 48 hours
T1 construct: endogenous in cells; host or cells: RAW264.7
T1 sequence (Q9WV30 whole entry): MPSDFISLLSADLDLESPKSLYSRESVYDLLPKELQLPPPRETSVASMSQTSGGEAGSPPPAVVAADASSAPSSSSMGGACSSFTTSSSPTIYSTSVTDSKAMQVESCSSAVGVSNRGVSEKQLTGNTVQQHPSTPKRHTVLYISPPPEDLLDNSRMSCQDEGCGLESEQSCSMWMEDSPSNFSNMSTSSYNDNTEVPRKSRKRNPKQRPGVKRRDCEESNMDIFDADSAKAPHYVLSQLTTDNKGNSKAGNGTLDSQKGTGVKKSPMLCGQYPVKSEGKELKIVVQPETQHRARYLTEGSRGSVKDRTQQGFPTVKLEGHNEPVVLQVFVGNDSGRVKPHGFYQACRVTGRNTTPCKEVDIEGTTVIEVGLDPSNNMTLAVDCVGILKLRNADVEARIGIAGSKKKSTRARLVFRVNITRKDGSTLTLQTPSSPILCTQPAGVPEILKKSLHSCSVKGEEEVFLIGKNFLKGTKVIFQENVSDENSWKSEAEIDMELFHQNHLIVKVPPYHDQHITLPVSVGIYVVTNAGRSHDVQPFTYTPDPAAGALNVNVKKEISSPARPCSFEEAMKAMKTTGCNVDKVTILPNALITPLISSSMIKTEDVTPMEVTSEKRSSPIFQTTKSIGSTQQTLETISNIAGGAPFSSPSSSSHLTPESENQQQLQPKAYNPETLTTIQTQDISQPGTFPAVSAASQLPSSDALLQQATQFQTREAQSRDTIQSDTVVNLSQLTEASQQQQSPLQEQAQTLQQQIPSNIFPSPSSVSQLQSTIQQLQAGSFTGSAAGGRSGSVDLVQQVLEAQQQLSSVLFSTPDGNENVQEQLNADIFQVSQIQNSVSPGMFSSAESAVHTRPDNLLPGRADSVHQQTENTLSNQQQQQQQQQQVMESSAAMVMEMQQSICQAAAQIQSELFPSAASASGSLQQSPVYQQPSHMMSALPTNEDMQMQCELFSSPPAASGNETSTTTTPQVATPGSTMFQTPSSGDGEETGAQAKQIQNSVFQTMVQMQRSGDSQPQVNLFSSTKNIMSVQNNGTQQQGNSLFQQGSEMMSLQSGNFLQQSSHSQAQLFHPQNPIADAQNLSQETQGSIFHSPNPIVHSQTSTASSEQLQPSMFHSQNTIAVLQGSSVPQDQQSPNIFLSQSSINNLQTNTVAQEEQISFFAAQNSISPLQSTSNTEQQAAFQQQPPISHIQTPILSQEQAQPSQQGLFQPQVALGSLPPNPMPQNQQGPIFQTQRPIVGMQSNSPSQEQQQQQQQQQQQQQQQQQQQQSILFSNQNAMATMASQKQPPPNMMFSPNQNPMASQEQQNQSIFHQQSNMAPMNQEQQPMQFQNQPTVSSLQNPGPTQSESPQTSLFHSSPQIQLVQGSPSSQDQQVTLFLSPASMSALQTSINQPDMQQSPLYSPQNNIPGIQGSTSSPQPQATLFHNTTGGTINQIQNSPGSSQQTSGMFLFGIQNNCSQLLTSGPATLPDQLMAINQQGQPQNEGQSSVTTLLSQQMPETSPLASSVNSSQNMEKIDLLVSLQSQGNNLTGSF
Experimental: To investigate whether or not the derivative of the present invention could inhibit the transcriptional activity of NFAT5, NFAT5 reporter screening was performed. A plasmid vector was constructed by eliminating CMV promoter sequence from the backbone and inserting NFAT5 binding site sequence ([…]) instead. Raw264.7 cells transfected with the vector were cultured in 10% FBS-PRMI (supplemented with 500 μg/ml G418). The cells were distributed in a 96-well plate at the density of 3×10^3 cells/well, followed by further culture for one more day. The cells were treated with LPS at the concentration of 1 μg/ml for 48 hours. Then, the cells were fixed and the expression level of GFP was measured by HCS fluorescence image (Thermo, ArrayScan^VTI).

[3] = 1 μM, Raw264.7, LPS 100 ng/ml, 24 hours
[4] = 10 μM, Raw264.7, LPS 100 ng/ml, 24 hours

Inhibition rate of NFAT5 transcription (%) ([2]; 1 μM) | Inhibition rate of NFAT5 transcription (%) ([2]; 10 μM) | SMILES | inhibition at 1 µM [1, 3] [%] | inhibition at 10 µM [1, 4] [%] | inhibition at 1 µM ([1]; RAW264.7, 24 h) [%] | inhibition at 10 µM ([1]; RAW264.7, 24 h) [%] | inhibiting NFAT5 activity (in words) ([2]; Table 3 and FIG. 1)
13.6 | 24.4 | COc1ccc2c(Cc3ccc(F)cc3F)c3n(c(=O)c2c1OC)CCc1cc2c(cc1-3)OCO2 [Example 2, 13-(2,4-difluorobenzyl)-9,10-dimethoxy-5H-[1,3]dioxolo[4,5-g]isoquinolino[3,2-a]isoquinoline-8(6H)-one] | 56.8 | 95.2 | – | – | –
−11.1 | −29.9 | COc1ccc2c(C(=O)Nc3ccccc3F)c3n(c(=O)c2c1OC)CCc1cc2c(cc1-3)OCO2 [Example 13, N-(2-fluorophenyl)-9,10-dimethoxy-8-oxo-6,8-dihydro-5H-[1,3]dioxolo[4,5-g]isoquinolino[3,2-a]isoquinoline-13-carboxamide] | 70.8 | 106 | – | – | –
24.2 | 77.6 | COc1ccccc1Cc1c2n(c(=O)c3c(OC)c(OC)ccc13)CCc1cc3c(cc1-2)OCO3 [Example 5, 9,10-dimethoxy-13-(2-methoxybenzyl)-5,6-dihydro-[1,3]dioxolo[4,5-g]isoquinolino [3,2-a]isoquinoline-8(6H)-one] | 29 | 98.3 | – | – | –
−10.4 | −12.8 | COc1ccc2c(C(=O)O)c3n(c(=O)c2c1OC)CCc1cc2c(cc1-3)OCO2 [Example 11, 9,10-dimethoxy-8-oxo-6,8-dihydro-5H-[1,3]dioxolo[4,5-g]isoquinolino[3,2-a]isoquinoline-13-carboxylic acid] | -17.2 | 118 | – | – | –

SMILES | Inhibition rate of NFAT5 transcription (%) ([2]; 1 μM) | Inhibition rate of NFAT5 transcription (%) ([2]; 10 μM) | inhibition at 1 µM [1, 3] [%] | inhibition at 10 µM [1, 4] [%] | inhibition at 1 µM ([1]; RAW264.7, 24 h) [%] | inhibition at 10 µM ([1]; RAW264.7, 24 h) [%] | inhibiting NFAT5 activity (in words) ([2]; Table 3 and FIG. 1)
CCOC(=O)c1c2n(c(=O)c3c(OC)c(OC)ccc13)CCc1cc3c(cc1-2)OCO3 [Example 10, ethyl9,10-dimethoxy-8-oxo-6,8-dihydro-5H-[1,3]dioxolo[4,5-g]isoquinolino[3,2-a]isoquinoline-13-carboxylate] | −3.8 | 53.7 | – | – | 53.9 | 99.2 | remarkably excellent in inhibiting NFAT5 activity
COc1ccc2c(Cc3nc4ccccc4[nH]3)c3n(c(=O)c2c1OC)CCc1cc2c(cc1-3)OCO2 [Example 7, 13-((1H-benzo[d]imidazole-2-yl)methyl)-9,10-dimethoxy-5,6-dihydro-[1,3]dioxolo [4,5-g]isoquinolino[3,2-a]isoquinoline-8(6H)-one] | 18.5 | 28.2 | – | – | 13.4 | 100 | –
